Source: patent US20140322076A1, “ANTIMICROBIAL COMPOSITION” (priority 2011, published 2014)

Experiments:
[1] = system: Escherichia coli (E. coli - ATCC #10536); experiment: Automated assessment of efficacy in surfactant base (Example 4); format: cell-based; details: 15 seconds exposure; for DeltaOD (450 nm) Mean: OD450 (16 hours) − OD450 (time zero), 2.85% sodium cocoyl glycinate + 1.85% sodium lauroamphoacetate; for DeltaOD (450 nm) Mean / DeltaOD (590 nm) Mean: pH 10; for DeltaOD (590 nm) Mean: OD590 (16 hours) − OD590 (time zero), same surfactant solution; for Nrep = No. of replicates showing growth (out of 4): surfactant solution pH 10
Procedure: In these examples, the efficacy of combinations of isopropylmethylphenols and terpineol were tested in a surfactant cleansing formulation comprising 2.85% sodium cocoyl glycinate and 1.85% sodium lauroamphoacetate. This corresponds to a 50% in use dilution with water of a typical neat formulation containing 5.7% cocoyl glycinate and 3.7% % sodium lauroamphoacetate during hand washing. Solutions were prepared such that the concentrations of the surfactant components and test actives were 1.1 times the final desired concentration in order to allow for dilution with the bacterial inoculum in the test. The solutions were manually adjusted to pH 10.0 by dropwise addition of sodium hydroxide solution, as measured with a pH meter at ambient temperature. Solutions of the isopropylmethylphenols and/or terpineols were prepared at a maximum of 24 hours before testing. The same terpineol was used as in Example 1.
The efficacy of the combinations of the present invention was determined against the same bacterium as in Example 1, Escherichia coli (E. coli—ATCC #10536), at a concentration of approximately 1×10^8 bacteria per mL.
Tests were conducted using standard microtiter plate assays using an automated liquid handling system. 270 μl of the surfactant test solution was pipetted into each well of the microtitre plate (Nunc F Gamma Irradiated 96F untreated microtitre plates of clear polystyrene) and 30 μl of the bacterial suspension was then added. After exactly 15 seconds of bacterial exposure, a 30 μl volume of bacterial cells was withdrawn and transferred to 270 μl of D/E quench solution. After 5 minutes in the D/E quench, the optical density (OD) was measured for each plate in turn at two specific wavelengths (450 nm and 590 nm). These provide a dual check of antimicrobial activity, as the OD450 reading is specific for the yellow colour of D/E quench when bacterial growth is observed, whereas OD590 is specific for the initial purple colour of the D/E quench which is retained if no bacterial growth is observed. After the time zero OD measurements, plates were then incubated at 37° C. overnight (16 hours) before repeating the OD measurements. Delta OD values were calculated by subtracting […] at time=16 hours.
Bacterial growth is observed as an increase in OD450 and a decrease in OD590. To identify antibacterially efficacious systems (those preventing appreciable bacterial growth after incubation), the following threshold changes in OD readings have been adopted: if (1). OD450 increases by less than 0.2 absorbance unit (AU) on incubation and (2). OD590 decreases by less than 0.35 AU on incubation. Conversely, where OD450 increases by more than 0.1 AU and OD590 decreases by more than 0.1 AU after incubation, corresponding to a colour shift from purple to yellow, the test system allows bacterial growth and is not deemed efficacious. Four replicate measurements in the same plate have been made for each test system. The number of replicate wells showing either bacterial growth or no growth is also readily assessed by eye by following the colour change. Thymol and terpineol were tested both alone and in combination for comparison purposes.
In each case, binary mixtures were assessed in the weight to weight ratio isopropylmethylphenol to alpha terpineol of 1:2.5.

[2] = system: Escherichia coli (10536 strain); experiment: Antimicrobial efficacy, 15 seconds contact suspension assay (Examples 1 and 3); format: cell-based; details: for NMBS (mean bacterial survival) / NMBS: contact time 15 seconds; for NMBS (mean bacterial survival): phenol and terpineol concentration (% w/v) as given per example, 0 = complete kill, triplicate; for NMBS: Example 3, gamma-terpineol, concentrations (% w/v) as given per example
Procedure: The efficacies of antimicrobial agents can be usefully compared by determining the Minimum Biocidal Concentration (MBC). The MBC is defined as the lowest absolute concentration of the particular active that provides complete kill (zero bacterial growth).
ΣFBC=FBC(component 1)+FBC(component 2)+FBC(component 3)+ . . . etc
such that • ΣFBC≧1 corresponds to additive or antagonistic bactericidal activity • ΣFBC<1 corresponds to synergistic bactericidal activity
Antimicrobial efficacy is tested against a representative pathogenic bacterial organism, Gram negative Escherichia coli. Concentrations of actives are expressed in terms of the percentage weight/volume (% w/v) throughout Example 1.
An overnight culture of Escherichia coli (10536 strain) was prepared in 50 ml total volume of TSB broth, grown for ca. 18 hrs at 37° C. and shaken at 150 rpm. 1 ml of this overnight E. coli culture was transferred to 50 ml of fresh TSB broth and incubated at 37° C. at 150 rpm for ca. 4 hours. This culture was separated into equal volumes and centrifuged at 4000 rpm for 15 minutes, washed with sterile saline (0.85% NaCl), centrifuged once more and re-suspended in saline to give a final concentration of 0.8 OD620 equivalent to about 10^8 cells per millilitre for this particular organism. Here, OD620 indicates the absorbance of a sample in a cuvette of 1.0 cm path length at a wavelength of 620 nm. This bacterial stock was used for assaying against antimicrobial actives (in triplicate).
The following assay describes the testing of 8 materials using 6 dilutions across half of a 96-well micro titre plate (MTP). Using this approach it is possible to assay 16 actives (without replicates) with one full dilution plate, replicating this set up in two halves of the plate columns, 1-6 and 7-12.
1M solutions of the test actives were prepared in dimethylsulphoxide (DMSO).
Aliquots (270 μl) of the materials at 1.11 times the final concentration were dispensed into the wells of the MTP along one column (A1-H1). This MTP was labelled as the “Screening plate”.
In another MTP, labelled as the “Dilution plate”, 270 μl of D/E neutralising solution from DIFCO Composition was added to column 1. The composition of the neutralising solution was as follows: pancreatic digest of casein, 5.0 g/L; Yeast Extract, 2.5 g/L; Dextrose, 10 g/L, sodium thioglycollate, 1.0 g/L, sodium thiosulphate, 6.0 g/L; sodium bisulphite, 2.5 g/L; Polysorbate 80, 5.0 g/L; lecithin 7.0 g/L; bromocresol purple, 0.02 g/L with a pH in the range 7.6±0.2.
270 μl of tryptone diluent solution was added to all the remaining wells of the Dilution MTP (columns 2-6).
Bacterial stock (30 μl) was then added to the prepared 270 μl of the solution of actives in the Screening Plate and mixed, using a multichannel pipette with 8 tips to aspirate and dispense the same volume of bacterial stock in parallel to 8 wells in rows A-H. After a contact time of 15 seconds, the mixtures were quenched by transferring 30 μl volumes of the mixtures into the 270 μl D/E neutralising solution in the prepared dilution plate, using aspiration to mix. After exactly 5 minutes in the D/E neutralising solution, 30 μl volumes were transferred from column 1 to column 2 of the Dilution MTP and mixed, before transferring further 30 μl volumes from column 2 into column 3. This process was repeated serially diluting the bacteria across the plate to column 6.
30 μl volumes from each well in the Dilution MTP were transferred onto pre-labelled segment of Tryptone Soya Agar (TSA) plates starting from the lowest bacterial concentration (highest dilution, column 6) to the highest bacterial concentration (column 1). The TSA plates were allowed to stand for ca. 2 hours so that the 30 μl inocula spots could dry and the plates were then inverted and incubated overnight at 37° C. before enumerating the bacterial colonies at the labelled dilutions to determine the effects of the actives on bacterial growth.

## CC1=CCC(O)(C(C)C)CC1 (stereo not shown) [4:10, terpineol]
[1]
  DeltaOD (450 nm) Mean: −0.45
  DeltaOD (590 nm) Mean: 0.64
  Nrep = No. of replicates showing growth (out of 4): 4

## CC1=CCC(O)(C(C)C)CC1 (stereo not shown) [4:14, terpineol]
[1]
  DeltaOD (450 nm) Mean: −0.54
  DeltaOD (590 nm) Mean: 0.56
  Nrep = No. of replicates showing growth (out of 4): 4

## Cc1cc(O)ccc1C(C)C [1:12, 4-isopropyl-3-methylphenol]
[2]
  NMBS (mean bacterial survival): 0 log CFU/ml

## Cc1cc(O)ccc1C(C)C [3:6, 4-isopropyl-3-methylphenol]
[2]
  NMBS: 7.78 log CFU/ml

## Cc1ccc(C(C)C)c(O)c1 [4:7, thymol]
[1]
  DeltaOD (450 nm) Mean: −0.59
  DeltaOD (590 nm) Mean: 0.54
  Nrep = No. of replicates showing growth (out of 4): 4

## Cc1ccc(C(C)C)c(O)c1 [4:3, thymol]
[1]
  DeltaOD (450 nm) Mean: −0.54
  DeltaOD (590 nm) Mean: 0.56
  Nrep = No. of replicates showing growth (out of 4): 4

## Cc1ccc(C(C)C)c(O)c1 [1:1, thymol]
[2]
  NMBS (mean bacterial survival): 0 log CFU/ml

## CC(C)=C1CCC(C)(O)CC1 (stereo not shown) [3:2, gamma-terpineol]
[2]
  NMBS: 0 log CFU/ml

## CC1=CCC(O)(C(C)C)CC1 (stereo not shown) [1:4, terpineol]
[2]
  NMBS (mean bacterial survival): 0 log CFU/ml

## CC1=CCC(O)(C(C)C)CC1 (stereo not shown) [1:5, terpineol]
[2]
  NMBS (mean bacterial survival): 0 log CFU/ml

## CC(C)=C1CCC(C)(O)CC1 (stereo not shown) [gamma-terpineol]
[2]; lowest concentration with complete kill after 15 seconds contact, active alone, upper boundary to the MBC
  MBC (Minimum Biocidal Concentration): 0.3 % w/v

## CC1=CCC(O)(C(C)C)CC1 (stereo not shown) [4:11, terpineol]
[1]
  DeltaOD (450 nm) Mean: −0.47
  DeltaOD (590 nm) Mean: 0.59
  Nrep = No. of replicates showing growth (out of 4): 4

## Cc1cc(O)cc(C(C)C)c1 [4:20, 3-isopropyl-5-methylphenol]
[1]
  DeltaOD (450 nm) Mean: −0.56
  DeltaOD (590 nm) Mean: 0.57
  Nrep = No. of replicates showing growth (out of 4): 4

## CC(C)=C1CCC(C)(O)CC1 (stereo not shown) [3:3, gamma-terpineol]
[2]
  NMBS: 0 log CFU/ml

## CC1=CCC(O)(C(C)C)CC1 (stereo not shown) [4:12, terpineol]
[1]
  DeltaOD (450 nm) Mean: −0.48
  DeltaOD (590 nm) Mean: 0.58
  Nrep = No. of replicates showing growth (out of 4): 4

## CC(C)=C1CCC(C)(O)CC1 (stereo not shown) [3:1, gamma-terpineol]
[2]
  NMBS: 0 log CFU/ml

## CC1=CCC(O)(C(C)C)CC1 (stereo not shown) [1:6, terpineol]
[2]
  NMBS (mean bacterial survival): 7 log CFU/ml

## Cc1ccc(C(C)C)c(O)c1 [4:9, thymol]
[1]
  DeltaOD (450 nm) Mean: −0.55
  DeltaOD (590 nm) Mean: 0.65
  Nrep = No. of replicates showing growth (out of 4): 4

## CC1=CCC(O)(C(C)C)CC1 (stereo not shown) [4:16, terpineol]
[1]
  DeltaOD (450 nm) Mean: −0.57
  DeltaOD (590 nm) Mean: 0.55
  Nrep = No. of replicates showing growth (out of 4): 4

## Cc1cc(O)cc(C(C)C)c1 [1:9, 3-isopropyl-5-methylphenol]
[2]
  NMBS (mean bacterial survival): 7.6 log CFU/ml

## Cc1cc(O)ccc1C(C)C [4:26, 4-isopropyl-3-methylphenol]
[1]
  DeltaOD (450 nm) Mean: −0.46
  DeltaOD (590 nm) Mean: 0.67
  Nrep = No. of replicates showing growth (out of 4): 4

## Cc1cc(O)ccc1C(C)C [1:13, 4-isopropyl-3-methylphenol]
[2]
  NMBS (mean bacterial survival): 7.6 log CFU/ml

## Cc1cc(O)cc(C(C)C)c1 [1:8, 3-isopropyl-5-methylphenol]
[2]
  NMBS (mean bacterial survival): 0 log CFU/ml

## CC1=CCC(O)(C(C)C)CC1 (stereo not shown) [4:15, terpineol]
[1]
  DeltaOD (450 nm) Mean: −0.56
  DeltaOD (590 nm) Mean: 0.55
  Nrep = No. of replicates showing growth (out of 4): 4

## Cc1cc(O)ccc1C(C)C [4:27, 4-isopropyl-3-methylphenol]
[1]
  DeltaOD (450 nm) Mean: −0.48
  DeltaOD (590 nm) Mean: 0.58
  Nrep = No. of replicates showing growth (out of 4): 4

## Cc1ccc(C(C)C)c(O)c1 [4:4, thymol]
[1]
  DeltaOD (450 nm) Mean: −0.57
  DeltaOD (590 nm) Mean: 0.55
  Nrep = No. of replicates showing growth (out of 4): 4

## Cc1ccc(C(C)C)c(O)c1 [4:2, thymol]
[1]
  DeltaOD (450 nm) Mean: −0.54
  DeltaOD (590 nm) Mean: 0.64
  Nrep = No. of replicates showing growth (out of 4): 4

## Cc1ccc(C(C)C)c(O)c1 [4:6, thymol]
[1]
  DeltaOD (450 nm) Mean: −0.58
  DeltaOD (590 nm) Mean: 0.54
  Nrep = No. of replicates showing growth (out of 4): 4

## Cc1ccc(C(C)C)c(O)c1 [4:8, thymol]
[1]
  DeltaOD (450 nm) Mean: −0.58
  DeltaOD (590 nm) Mean: 0.55
  Nrep = No. of replicates showing growth (out of 4): 4

## Cc1ccc(C(C)C)c(O)c1 [4:5, thymol]
[1]
  DeltaOD (450 nm) Mean: −0.58
  DeltaOD (590 nm) Mean: 0.55
  Nrep = No. of replicates showing growth (out of 4): 4

## CC1=CCC(O)(C(C)C)CC1 (stereo not shown) [4:13, terpineol]
[1]
  DeltaOD (450 nm) Mean: −0.51
  DeltaOD (590 nm) Mean: 0.57
  Nrep = No. of replicates showing growth (out of 4): 4

## CC1=CCC(O)(C(C)C)CC1 (stereo not shown) [4:17, terpineol]
[1]
  DeltaOD (450 nm) Mean: −0.53
  DeltaOD (590 nm) Mean: 0.67
  Nrep = No. of replicates showing growth (out of 4): 4

## Cc1cc(O)cc(C(C)C)c1 [4:18, 3-isopropyl-5-methylphenol]
[1]
  DeltaOD (450 nm) Mean: −0.54
  DeltaOD (590 nm) Mean: 0.63
  Nrep = No. of replicates showing growth (out of 4): 4

## Cc1cc(O)cc(C(C)C)c1 [4:21, 3-isopropyl-5-methylphenol]
[1]
  DeltaOD (450 nm) Mean: −0.57
  DeltaOD (590 nm) Mean: 0.56
  Nrep = No. of replicates showing growth (out of 4): 4

## Cc1cc(O)cc(C(C)C)c1 [4:19, 3-isopropyl-5-methylphenol]
[1]
  DeltaOD (450 nm) Mean: −0.53
  DeltaOD (590 nm) Mean: 0.58
  Nrep = No. of replicates showing growth (out of 4): 4
